Results taken from patent publication US12686665B2, “Bicyclic fused ring derivative or salt thereof and pharmaceutical composition comprising same” (YUHAN CORPORATION, priority 2021, dated 2026).
Counter-ions that a name gives are not always drawn.

What was measured:
Type in all cases: biochemical
[1] = molecular target: T1, recombinant human MAO-A (monoamine oxidase-A) (Homo sapiens, UniProt P21397); assay: Amplex Red HRP-coupled amine oxidase assay, recombinant human MAO-A; conditions: 0.5 mM tyramine substrate, read-out: Inhibitory activity (IC50, nM) MAO-A
T1 construct: purchased Sigma-Aldrich
T1 sequence (P21397 1-527): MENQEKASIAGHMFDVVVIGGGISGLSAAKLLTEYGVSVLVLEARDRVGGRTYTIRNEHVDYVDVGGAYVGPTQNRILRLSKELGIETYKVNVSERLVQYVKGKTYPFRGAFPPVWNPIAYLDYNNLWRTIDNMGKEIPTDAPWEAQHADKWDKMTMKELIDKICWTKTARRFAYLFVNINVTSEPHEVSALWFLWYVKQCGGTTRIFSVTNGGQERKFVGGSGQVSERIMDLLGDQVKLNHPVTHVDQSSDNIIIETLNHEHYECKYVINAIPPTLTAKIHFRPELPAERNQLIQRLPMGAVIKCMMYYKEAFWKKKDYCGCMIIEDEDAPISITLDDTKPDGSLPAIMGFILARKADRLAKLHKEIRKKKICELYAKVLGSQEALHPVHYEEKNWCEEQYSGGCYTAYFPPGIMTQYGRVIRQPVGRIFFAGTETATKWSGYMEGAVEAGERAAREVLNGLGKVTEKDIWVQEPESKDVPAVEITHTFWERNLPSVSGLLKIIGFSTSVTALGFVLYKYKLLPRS
Procedure: (§1) The activities of the compounds according to the present invention against recombinant human Lysyl Oxidase-Like 2 (recombinant human LOXL2, R&D systems) were evaluated by measuring the levels of hydrogen peroxide in the HRP (horseradish peroxidase) coupled reactions, with the Amplex Red Hydrogen Peroxide Assay Kit (Molecular Probes, Invitrogen, USA). The tests were carried out at 37° C., and putrescine was used as a substrate. In the HRP coupling reaction, the oxidation of 10-acetyl-3,7-dihydroxyphenoxazine (Amplex Red reagent) by hydrogen peroxide generates a fluorescent product, i.e., resorufin. Briefly, the test compounds were dissolved in dimethyl sulfoxide (DMSO) at a concentration of 20 mM. Dose-response measurements were carried out by serial dilutions in DMSO to generate a six-point curve. The upper concentration was adjusted according to the potency of the compound, and then diluted with the reaction buffer to obtain a final DMSO concentration of 1%. Purified human LOXL2 in 50 mM sodium phosphate buffer (pH7.4) was added to each well of a 96 well black plate. The test compounds dissolved in DMSO were incubated with the human LOXL2 enzyme at 37° C. for 60 minutes. After the incubation for 60 minutes, a reaction mixture containing 400 μM Amplex Red reagent, 30 mM putrescine, and 2 U/mL HRP in 50 mM sodium phosphate buffer (pH 7.4) was added to each well. Fluorescence was measured with a microplate reader (Flexstation3, Molecular Devices), under the conditions of excitation at 530 nm and emission at 590 nm, 1 hour after the addition of the mixture. Inhibition by each compound was measured as % reduction in signal, compared to the control without an inhibitor (diluted DMSO only). The data were fixed to a four-variable logistic model, and […] values were calculated using the GraphPad Prism program.
(§2) And, the activities of the compounds according to the present invention against recombinant human MAO-A (monoamine oxidase-A, Sigma-Aldrich) and recombinant human MAO-B (monoamine oxidase-B, Sigma-Aldrich) were evaluated in a similar manner to the activity evaluation method for recombinant human LOXL2, using 0.5 mM tyramine and 1 mM benzylamine as a substrate, respectively. In addition, the activities of the compounds according to the present invention against recombinant human DAO (diamine oxidase, R&D systems) were evaluated in a similar manner to the activity evaluation method for recombinant human LOXL2, using 1 mM putrescine as a substrate.

[2] = molecular target: T2, recombinant human MAO-B (monoamine oxidase-B) (Homo sapiens, UniProt P27338); assay: Amplex Red HRP-coupled amine oxidase assay, recombinant human MAO-B; conditions: 1 mM benzylamine substrate, read-out: Inhibitory activity (IC50, nM) MAO-B
T2 construct: purchased Sigma-Aldrich
T2 sequence (P27338 1-520): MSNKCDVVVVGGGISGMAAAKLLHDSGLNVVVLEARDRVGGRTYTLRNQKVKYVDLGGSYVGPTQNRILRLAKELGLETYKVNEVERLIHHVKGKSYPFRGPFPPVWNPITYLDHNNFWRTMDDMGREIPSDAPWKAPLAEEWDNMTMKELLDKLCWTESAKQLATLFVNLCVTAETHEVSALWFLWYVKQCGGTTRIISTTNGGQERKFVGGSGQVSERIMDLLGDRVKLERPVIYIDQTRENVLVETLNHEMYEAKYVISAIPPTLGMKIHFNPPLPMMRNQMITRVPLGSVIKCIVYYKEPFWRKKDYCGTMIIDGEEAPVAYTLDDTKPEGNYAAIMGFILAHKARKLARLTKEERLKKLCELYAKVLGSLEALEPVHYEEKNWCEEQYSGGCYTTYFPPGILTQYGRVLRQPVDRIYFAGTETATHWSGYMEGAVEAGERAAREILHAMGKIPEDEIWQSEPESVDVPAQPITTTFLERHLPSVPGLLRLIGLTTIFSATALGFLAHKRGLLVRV
Procedure: as §1, §2

[3] = molecular target: T3, recombinant human Lysyl Oxidase-Like 2 (LOXL2) (Homo sapiens, UniProt Q9Y4K0); assay: Amplex Red HRP-coupled amine oxidase assay, recombinant human LOXL2; conditions: 60 min incubation with enzyme at 37° C., putrescine substrate, read-out: Inhibitory activity (IC50, nM) human LOXL2
T3 construct: purchased R&D systems
T3 sequence (Q9Y4K0 26-774): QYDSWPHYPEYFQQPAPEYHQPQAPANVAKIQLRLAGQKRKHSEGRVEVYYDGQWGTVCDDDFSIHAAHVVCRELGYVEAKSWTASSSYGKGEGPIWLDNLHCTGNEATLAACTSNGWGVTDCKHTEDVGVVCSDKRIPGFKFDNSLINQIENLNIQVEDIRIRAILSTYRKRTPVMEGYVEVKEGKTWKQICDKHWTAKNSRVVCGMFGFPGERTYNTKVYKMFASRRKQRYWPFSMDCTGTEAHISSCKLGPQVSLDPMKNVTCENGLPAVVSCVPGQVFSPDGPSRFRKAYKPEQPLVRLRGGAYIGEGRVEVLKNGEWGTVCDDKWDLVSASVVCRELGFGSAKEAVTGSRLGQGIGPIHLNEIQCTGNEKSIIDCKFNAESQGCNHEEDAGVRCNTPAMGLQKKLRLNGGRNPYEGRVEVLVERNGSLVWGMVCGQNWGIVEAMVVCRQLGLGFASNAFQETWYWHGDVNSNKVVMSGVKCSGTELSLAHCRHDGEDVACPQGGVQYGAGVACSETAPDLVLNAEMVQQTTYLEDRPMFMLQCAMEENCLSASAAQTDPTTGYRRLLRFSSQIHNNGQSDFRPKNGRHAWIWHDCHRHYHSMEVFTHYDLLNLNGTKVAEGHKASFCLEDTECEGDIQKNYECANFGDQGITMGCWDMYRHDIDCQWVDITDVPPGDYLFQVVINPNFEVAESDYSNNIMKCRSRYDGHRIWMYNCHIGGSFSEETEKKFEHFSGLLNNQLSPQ
Procedure: as §1

[4] = molecular target: T4, recombinant human DAO (diamine oxidase) (Homo sapiens, UniProt P19801); assay: Amplex Red HRP-coupled amine oxidase assay, recombinant human DAO; conditions: 1 mM putrescine substrate, read-out: Inhibitory activity (IC50, nM) DAO
T4 construct: purchased R&D systems
T4 sequence (P19801 20-751): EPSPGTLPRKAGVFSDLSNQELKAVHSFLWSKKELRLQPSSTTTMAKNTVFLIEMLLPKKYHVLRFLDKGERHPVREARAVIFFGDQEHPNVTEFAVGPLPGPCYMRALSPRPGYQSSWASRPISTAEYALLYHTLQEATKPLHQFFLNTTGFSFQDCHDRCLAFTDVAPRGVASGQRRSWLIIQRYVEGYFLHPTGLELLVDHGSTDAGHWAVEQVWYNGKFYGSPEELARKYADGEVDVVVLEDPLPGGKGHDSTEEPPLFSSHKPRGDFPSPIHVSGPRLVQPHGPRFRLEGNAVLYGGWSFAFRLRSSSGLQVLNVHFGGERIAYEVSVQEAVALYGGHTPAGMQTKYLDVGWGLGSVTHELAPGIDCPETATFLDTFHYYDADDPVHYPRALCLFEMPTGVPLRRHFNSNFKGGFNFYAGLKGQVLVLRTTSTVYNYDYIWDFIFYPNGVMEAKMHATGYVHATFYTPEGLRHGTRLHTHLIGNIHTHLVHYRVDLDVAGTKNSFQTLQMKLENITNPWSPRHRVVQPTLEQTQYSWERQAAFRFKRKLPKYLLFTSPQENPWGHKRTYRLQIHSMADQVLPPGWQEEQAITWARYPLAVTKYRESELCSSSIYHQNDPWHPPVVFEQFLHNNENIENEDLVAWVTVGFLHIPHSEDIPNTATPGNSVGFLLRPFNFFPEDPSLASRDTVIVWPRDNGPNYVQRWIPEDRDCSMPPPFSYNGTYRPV
Procedure: as §1, §2

Structure (SMILES) | IC50 [1] | IC50 [2] | IC50 [3] | IC50 [4]
CCn1nccc1-c1cc(C#N)cc2c1ncn2C/C(F)=C/CN [Example 192, (Z)-1-(4-amino-2-fluorobut-2-en-1-yl)-4-(1-ethyl-1H-pyrazol-5-yl)-1H-benzo[d]imidazol-6-carbonitrile hydrochloride] | > 100000 nM | > 100000 nM | 137 nM | 
CN(C)S(=O)(=O)c1cccc(-c2cc(C(F)(F)F)cc3c2nnn3C/C(F)=C/CN)c1 [Example 196, (Z)-3-(1-(4-amino-2-fluorobut-2-en-1-yl)-6-(trifluoromethyl)-1H-benzo[d][1,2,3]triazol-4-yl)—N,N-dimethylbenzenesulfonamide hydrochloride] |  |  | 34 nM | 3150 nM
COC(=O)c1cc(-c2cc(S(=O)(=O)NC3CC3)ccc2OC)c2nnn(C/C(F)=C/CN)c2c1 [Example 120, methyl (Z)-1-(4-amino-2-fluorobut-2-en-1-yl)-4-(5-(N-cyclopropylsulfamoyl)-2-methoxyphenyl)-1H-benzo[d][1,2,3]triazol-6-carboxylate hydrochloride] |  | 97000 nM | 17.1 nM | 2830 nM
CC(=O)c1ccc(F)c(-c2cc(C#N)cc3c2ncn3C/C(F)=C/CN)c1 [Example 184, (Z)-4-(5-acetyl-2-fluorophenyl)-1-(4-amino-2-fluorobut-2-en-1-yl)-1H-benzo[d]imidazol-6-carbonitrile hydrochloride] | > 100000 nM | > 100000 nM | 99 nM | 
N#Cc1cc(-c2cccc(CO)c2Cl)c2nnn(C/C(F)=C/CN)c2c1 [Example 207, (Z)-1-(4-amino-2-fluorobut-2-en-1-yl)-4-[2-chloro-3-(hydroxymethyl)phenyl-1H-benzo[d][1,2,3]triazol-6-carbonitrile hydrochloride] |  |  | 281 nM | 7440 nM
Cn1nccc1-c1cc(C#N)cc2c1nnn2C/C(F)=C/CN [Example 211, (Z)-1-(4-amino-2-fluorobut-2-en-1-yl)-4-(1-methyl-1H-pyrazol-5-yl)-1H-benzo[d][1,2,3]triazol-6-carbonitrile hydrochloride] |  |  | 350 nM | 1730 nM
N#Cc1cc(-c2cccc(S(=O)(=O)N3CCCC3)c2)c2ncn(C/C(F)=C/CN)c2c1 [Example 181, (Z)-1-(4-amino-2-fluorobut-2-en-1-yl)-4-(3-(pyrrolidin-1-ylsulfonyl)phenyl)-1H-benzo[d]imidazol-6-carbonitrile hydrochloride] | > 100000 nM | > 100000 nM | 43.1 nM | 
N#Cc1cc(-c2cc(CO)ccc2F)c2nnn(C/C(F)=C/CN)c2c1 [Example 206, (Z)-1-(4-amino-2-fluorobut-2-en-1-yl)-4-[2-fluoro-5-(hydroxymethyl)phenyl]-1H-benzo[d][1,2,3]triazol-6-carbonitrile hydrochloride] |  |  | 200 nM | 1960 nM
N#Cc1cc(-c2cncnc2)c2nnn(C/C(F)=C/CN)c2c1 [Example 210, (Z)-1-(4-amino-2-fluorobut-2-en-1-yl)-4-(pyrimidin-5-yl)-1H-benzo[d][1,2,3]triazol-6-carbo nitrile hydrochloride] |  |  | 264 nM | 432 nM
COC(=O)c1cc(-c2cccc(S(=O)(=O)NC3CC3)c2)c2nnn(C/C(F)=C/CN)c2c1 [Example 122, methyl (Z)-1-(4-amino-2-fluorobut-2-en-1-yl)-4-(3-(N-cyclopropylsulfamoyl)phenyl)-1H-benzo[d][1,2,3]triazol-6-carboxylate hydrochloride] |  |  | 32.2 nM | 
NC/C=C(\F)Cn1nnc2c(-c3cccc(S(=O)(=O)N4CCCC4)c3)cccc21 [Example 104, (Z)-3-fluoro-4-(4-(3-(pyrrolidin-1-ylsulfonyl)phenyl)-1H-benzo[d][1,2,3]triazol-1-yl)but-2-en-1-amine hydrochloride] |  |  | 51 nM | 
CCS(=O)(=O)c1cccc(-c2cc(C(=O)OC)cc3c2nnn3C/C(F)=C/CN)c1 [Example 127, methyl (Z)-1-(4-amino-2-fluorobut-2-en-1-yl)-4-(3-(ethylsulfonyl)phenyl)-1H-benzo[d][1,2,3]triazol-6-carboxylate hydrochloride] |  |  | 19 nM | 
